Test results reported in patent US4883863A, “Tripeptide derivatives and antiplasmin agents containing the same” (Nitto Boseki Co., Ltd., priority 1987, dated 1989).
pIC50: −log10 of the molar value. Counter-ions that a name gives are not always drawn. Like-named read-outs stand apart in the source and are kept apart here. Where a SMILES comes first, the peptide text is derived from it. [ ]: non-standard residue; d: D form. The star is where a group is joined. Tos = Cc1ccc(S(=O)(=O)*)cc1

How the values were obtained:
[1] = target: T1, plasmin (Homo sapiens, UniProt P00747); design: purchased Sankyo (Color Test α2 -D1 Kit); conditions: background, related art; cited from earlier work
Target sequence in this assay (P00747 581-810 limits assumed, species assumed): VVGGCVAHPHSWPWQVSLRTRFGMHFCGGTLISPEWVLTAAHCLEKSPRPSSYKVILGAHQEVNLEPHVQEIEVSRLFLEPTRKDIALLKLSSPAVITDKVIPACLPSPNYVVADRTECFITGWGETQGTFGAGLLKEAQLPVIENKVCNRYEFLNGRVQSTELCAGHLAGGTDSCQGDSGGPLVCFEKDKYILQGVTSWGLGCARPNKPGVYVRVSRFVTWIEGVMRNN
Target sequence in this assay (P00747 97-580 partner limits assumed, species assumed): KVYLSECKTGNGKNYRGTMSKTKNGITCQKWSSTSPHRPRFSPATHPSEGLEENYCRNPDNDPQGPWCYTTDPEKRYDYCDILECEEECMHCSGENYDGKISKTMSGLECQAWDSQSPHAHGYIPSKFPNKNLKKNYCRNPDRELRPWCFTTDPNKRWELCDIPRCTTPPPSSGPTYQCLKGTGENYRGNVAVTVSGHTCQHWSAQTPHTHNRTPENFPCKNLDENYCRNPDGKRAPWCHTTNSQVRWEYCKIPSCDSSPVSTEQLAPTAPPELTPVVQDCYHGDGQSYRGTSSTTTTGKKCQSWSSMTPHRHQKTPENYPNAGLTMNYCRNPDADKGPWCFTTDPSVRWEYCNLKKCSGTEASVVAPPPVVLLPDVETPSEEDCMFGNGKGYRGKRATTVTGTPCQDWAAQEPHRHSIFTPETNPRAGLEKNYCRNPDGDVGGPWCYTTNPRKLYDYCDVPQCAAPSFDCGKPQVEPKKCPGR

[2] = target: T2, thrombin (Homo sapiens, UniProt P00734); assay: Thrombin-inhibiting activity, synthetic substrate PS-915; type: biochemical; conditions: PS-915, pH 8.5, 37° C.
T2 construct: purchased Sankyo (Color Test ATIII kit)
Excerpt: (§1) Synthetic substrates used for testing the inhibitory activity of the inhibitors on decomposition of substrates by the enzymes were as follows. For plasmin, PS-994 (H--D--Lys(Tos)--Phe--Lys--CHA·2HCl, mfd. by NITTO BOSEKI Co., Ltd.) was used; for thrombin and trypsin, PS-915 (H--D--Phe--Pro--Arg--CHA·2HCl, mfd. by NITTO BOSEKI Co., Ltd.); for Factor Xa, PS-2000 (Z--D--Lys--(HCO)--Gly--Arg--CHA·HCl, mfd. by NITTO BOSEKI Co., Ltd.); and for kallikrein, S-2302 (H--D--Pro--Phe--Arg--pNA, mfd., by Kabi Co., Ltd.).
(§2) As plasmin, standard plasmin of Sankyo Color Test α2 -D1 Kit was used in an amount of 0.3CU/ml. As thrombin, that of Sankyo Color Test ATIII kit was used in an amount of 1.2 NIHU/ml. As trypsin, that of cord 3703 of Worthington was used in an amount of 2 μg/ml. As human Factor Xa, that of Boehringer Manheim Co., Ltd. was used in an amount of 0.25 U/ml. As human plasma kallikrein, that of Kabi Co., Ltd. was used in an amount of 0.12 U/ml. As terminating color reagents, those for Sankyo Color Test Kit were used. The reactions were carried out at 37° C. unless otherwise specified.
Each of aqueous solutions (0.1 ml) of the inhibitors which solutions were various in their respective concentrations was added to 0.4 ml of a buffer solution (a 150 mM aqueous sodium chloride solution containing 150 mM Tris, pH 8.5), and the resulting solution was heated for 5 minutes. To this solution was added 0.2 ml of thrombin solution, followed by incubation for 5 minutes. Then, 0.1 ml of a PS-915 solution (10 mM) was added, followed by incubation for 5 minutes. Thereafter, 2 ml of terminating color reagent was added. After standing for 10 minutes, absorbance at 700 nm was measured, and IC50 was determined in the manner described above.

[3] = target: T3, trypsin (Bos taurus, UniProt P00760); assay: Trypsin-inhibiting activity, synthetic substrate PS-915; type: biochemical; conditions: PS-915, pH 8.0, 37° C.
T3 construct: purchased Worthington 3703
T3 sequence (P00760 24-246): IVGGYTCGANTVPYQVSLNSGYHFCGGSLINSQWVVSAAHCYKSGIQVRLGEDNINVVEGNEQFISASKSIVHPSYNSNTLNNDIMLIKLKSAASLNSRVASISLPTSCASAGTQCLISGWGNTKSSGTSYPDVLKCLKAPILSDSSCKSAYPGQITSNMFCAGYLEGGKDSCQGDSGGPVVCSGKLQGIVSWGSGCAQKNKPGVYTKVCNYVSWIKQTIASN
Excerpt: as §1, §2
Each of aqueous solutions (0.1 ml) of the inhibitors which solutions were various in their respective concentrations was added to 0.5 ml of a buffer solution (a 150 mM aqueous sodium chloride solution containing 150 mM Tris, pH 8.0), and the resulting solution was heated for 5 minutes. Then, 0.1 ml of a trypsin solution was added, followed by incubation for 5 minutes. Subsequently, 0.1 ml of a PS-915 solution (10 mM) was added, followed by incubation for 5 minutes. Thereafter, 2 ml of terminating color reagent [containing […] of soybean trypsin inhibitor (No. T-9003, available from Sigma Chemical Co.)] was added. After standing for 10 minutes, absorbance at 700 nm was measured and IC50 was determined in the manner described above.

[4] = target: T4, human plasma kallikrein (Homo sapiens, UniProt P03952); assay: Kallikrein-inhibiting activity, synthetic substrate S-2302; type: biochemical; conditions: S-2302, pH 8.0, 37° C.
T4 construct: purchased Kabi Co., Ltd
T4 sequence (P03952 391-638 limits assumed): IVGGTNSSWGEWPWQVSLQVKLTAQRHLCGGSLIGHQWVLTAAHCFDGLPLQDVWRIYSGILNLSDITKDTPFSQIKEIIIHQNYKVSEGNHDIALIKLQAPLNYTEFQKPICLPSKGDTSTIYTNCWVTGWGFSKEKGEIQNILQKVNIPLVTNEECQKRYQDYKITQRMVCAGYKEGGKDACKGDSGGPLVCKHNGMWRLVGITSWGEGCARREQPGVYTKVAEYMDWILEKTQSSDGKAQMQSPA
T4 sequence (P03952 20-390 partner limits assumed): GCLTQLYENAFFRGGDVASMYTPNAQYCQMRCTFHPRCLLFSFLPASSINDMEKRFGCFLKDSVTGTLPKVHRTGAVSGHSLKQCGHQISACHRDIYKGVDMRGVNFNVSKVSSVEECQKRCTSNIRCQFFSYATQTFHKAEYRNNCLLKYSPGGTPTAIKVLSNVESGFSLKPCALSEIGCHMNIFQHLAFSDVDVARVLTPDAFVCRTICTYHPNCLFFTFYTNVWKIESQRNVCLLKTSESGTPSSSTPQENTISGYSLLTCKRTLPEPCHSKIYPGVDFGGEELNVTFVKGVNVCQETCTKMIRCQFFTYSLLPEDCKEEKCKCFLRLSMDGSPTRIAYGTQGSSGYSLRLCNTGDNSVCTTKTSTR
Excerpt: as §1, §2
Each of aqueous solutions (0.1 ml) of the inhibitors which solutions were various in their respective concentrations was added to 0.4 ml of a buffer solution (a 150 mM aqueous sodium chloride solution containing 50 mM Tris, pH 8.0), and the resulting mixture was heated for 5 minutes. Then, 0.1 ml of a kallikrein solution [containing 0.5% bovine serum albumin (No. A8022 available from Sigma Chemical Co.)] was added, followed by incubation for 5 minutes. Subsequently, a 10 mM S-2302 aqueous solution (0.1 ml) was added. The reaction was terminated by addition of a 20% aqueous acetic acid solution. Absorbance at 405 nm was measured and IC50 was measured in the manner described above.

[5] = target: T5, human Factor Xa (Homo sapiens, UniProt P00742); assay: Factor Xa-inhibiting activity, synthetic substrate PS-2000; type: biochemical; conditions: PS-2000, pH 8.5, 37° C.
T5 construct: purchased Boehringer Manheim Co., Ltd
T5 sequence (P00742 235-488 limits assumed): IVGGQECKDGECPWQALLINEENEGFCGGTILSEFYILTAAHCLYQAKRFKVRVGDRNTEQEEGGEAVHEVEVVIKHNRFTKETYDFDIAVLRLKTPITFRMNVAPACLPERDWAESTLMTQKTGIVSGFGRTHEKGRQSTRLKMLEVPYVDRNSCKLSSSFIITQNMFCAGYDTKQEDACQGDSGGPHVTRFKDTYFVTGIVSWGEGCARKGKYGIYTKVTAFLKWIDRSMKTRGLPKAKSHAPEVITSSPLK
T5 sequence (P00742 41-179 partner limits assumed): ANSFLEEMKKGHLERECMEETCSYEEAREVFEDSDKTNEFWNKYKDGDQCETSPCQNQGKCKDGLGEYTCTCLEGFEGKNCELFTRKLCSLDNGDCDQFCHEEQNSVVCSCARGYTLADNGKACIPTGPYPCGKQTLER
Excerpt: as §1, §2
Each of aqueous solutions (1 ml) of the inhibitors which solutions were various in their respective concentrations was added to 0.3 ml of a buffer solution (a 150 mM aqueous sodium chloride solution containing 50 mM Tris, pH 8.5 ), and the resulting solution was heated for 5 minutes. Then, 0.1 ml of a Factor Xa solution (a 150 mM aqueous sodium chloride solution containing 50 mM Tris and 20 mM calcium chloride, pH 8.5) was added, followed by incubation for 5 minutes. Subsequently, a 5% polyvinyl pyrrobidone solution (0.1 ml) containing 10 mM PS-2000 was added, followed by incubation for 5 min. Thereafter, 2 ml of terminating color reagent was added. After standing for 10 minutes, absorbance at 700 nm was measured and IC50 was determined in the manner described above.

[6] = target: T1, plasmin; assay: Plasmin-inhibiting activity, synthetic substrate PS-994; type: biochemical; design: purchased Sankyo (Color Test α2 -D1 Kit); conditions: PS-994, pH 7.8, 37° C.
Excerpt: as §1, §2
Target sequence in this assay (P00747 581-810 limits assumed, species assumed): as the sequence (P00747 581-810 limits assumed, species assumed) above
Target sequence in this assay (P00747 97-580 partner limits assumed, species assumed): as the sequence (P00747 97-580 partner limits assumed, species assumed) above
Each of aqueous solutions (0.1 ml) of the inhibitors which solutions were various in their respective concentrations was added to 0.4 ml of a buffer solution (a 150 mM aqueous sodium chloride solution containing 100 mM Tris, pH 7.8), and the resulting solution was heated for 5 minutes. To this solution was added 0.2 ml of plasmin solution, followed by incubation for 5 minutes, and then 0.1 ml of a PS-994 solution (10 mM) was added, and then incubated for 5 minutes. After completion of the reaction, 2.0 ml of terminating color reagent was added, and after standing for 10 minutes, absorbance at 700 nm was measured. A concentration of the inhibitor in the reaction system at which the absorbance was one-half that obtained in the absence of the inhibitor was determined as IC50.

[7] = target: T1, plasmin; assay: Inhibitory activity on fibrin decomposition by plasmin (natural substrate); type: biochemical; design: Standard human serum (0.1 ml); from tissue; conditions: concentration doubling time for complete dissolution, 25° C.
Experimental: The determination was carried out by the method of Okamoto et al. (see Keio Journal of Medicine, vol. 11, p. 105 (1962).
Standard human serum (0.1 ml), 0.4 ml of each of 1/20 M potassium phosphate sodium physiological salt buffer solutions (pH 7.4) containing various concentrations of each inhibitor, and 0.1 ml of a solution of streptokinase in physiological saline (1000 U/ml) were stirred and then cooled at 0° C. for 10 minutes. Thereto was added 0.05 ml of a solution of thrombin in physiological saline (100 NIHU/ml, mfd. by Parke Davis Co. Ltd.) at 0° C. After standing for 1 minute, 0.3 ml of a 0.33% solution of bovine fibrinogen (F-4753, available from Sigma Chemical Co.) in physiological saline was added, and the resulting mixture was allowed to stand at 25° C. The solubility was measured every minute by the standard of judgement of Nakamura (see Allergy, vol. 5, p. 1 (1956)) and the time required for complete dissolution was determined. A concentration of the inhibitor at which said time is twice that required in the absence of the inhibitor was determined as IC50.
Target sequence in this assay (P00747 581-810 limits assumed): as the sequence (P00747 581-810 limits assumed, species assumed) above
Target sequence in this assay (P00747 97-580 partner limits assumed): as the sequence (P00747 97-580 partner limits assumed, species assumed) above

[8] = target: T1, plasmin; design: purchased Sankyo (Color Test α2 -D1 Kit); conditions: cited from earlier work
Target sequence in this assay (P00747 581-810 limits assumed, species assumed): as the sequence (P00747 581-810 limits assumed, species assumed) above
Target sequence in this assay (P00747 97-580 partner limits assumed, species assumed): as the sequence (P00747 97-580 partner limits assumed, species assumed) above

[9] = target: T1, plasmin; design: purchased Sankyo (Color Test α2 -D1 Kit); conditions: cited from earlier work; remark: listed apart in the source
Target sequence in this assay (P00747 581-810 limits assumed, species assumed): as the sequence (P00747 581-810 limits assumed, species assumed) above
Target sequence in this assay (P00747 97-580 partner limits assumed, species assumed): as the sequence (P00747 97-580 partner limits assumed, species assumed) above

[10] = tested on: thrombin and trypsin; conditions: background, related art; cited from earlier work

pIC50 ([2]; Table 4) | pIC50 ([3]; Table 4) | pIC50 ([4]; Table 4) | pIC50 ([5]; Table 4) | pIC50 ([6]; Table 4) | pIC50 ([7]; Table 4) | Compound | antiplasmin activity [1] | inhibition of proteases other than plasmin, for example, thrombin and trypsin [10] | further results
– | – | – | – | – | – | CC(=O)N[C@@H](CC(C)C)C(=O)N[C@@H](CC(C)C)C(=O)N[C@H](C=O)CCCCN [acetyl-L-leucyl-L-leucyl-lysinal] (Ac-Leu-Leu-Lys-aldehyde) | has antiplasmin activity | – | –
< 3.00 | 4.57 | 5.31 | 3.70 | 6.18 | 6.43 | CC(=O)N[C@H](CCCCNS(=O)(=O)c1ccc(C)cc1)C(=O)N[C@@H](Cc1ccccc1)C(=O)N[C@H](C=O)CCCCN [Compound 3, N-α-Acetyl-N-ε-(p-tosyl)-D-lysyl-L-phenylalanyl-L-lysinal hydrochloride] (Ac-[dK](Tos)-Phe-Lys-aldehyde) | – | – | –
– | – | – | – | – | – | NCCCCCC(=O)O [ε-Aminocaproic acid] | – | – | inhibition of fibrinolysis by plasmin ([8]; background, related art): inhibit only fibrinolysis by plasmin; ability to inhibit decomposition of other substrates by plasmin, e.g. fibrinogen ([9]; background, related art): substantially no ability to inhibit
– | – | – | – | – | – | CCOC(=O)c1ccc(OC(=O)CCCCCN=C(N)N)cc1.CS(=O)(=O)O [FOY] | have antiplamin activity | strongly inhibit | –
– | – | – | – | – | – | NC[C@H]1CC[C@H](C(=O)O)CC1 [t-AMCHA, trans-aminoethylcyclohexanecarboxylic acid] | – | – | inhibition of fibrinolysis by plasmin [8]: inhibit only fibrinolysis by plasmin; ability to inhibit decomposition of other substrates by plasmin, e.g. fibrinogen [9]: substantially no ability to inhibit
< 3.00 | 4.74 | 6.02 | 3.80 | 6.77 | 6.57 | Cc1ccc(S(=O)(=O)NCCCC[C@@H](N)C(=O)N[C@@H](Cc2ccccc2)C(=O)N[C@H](C=O)CCCCN)cc1 [Compound 7, N-ε-(p-Tosyl)-D-lysyl-L-phenylalanyl-L-lysinal dihydrochloride] (H-[dK](Tos)-Phe-Lys-aldehyde) | – | – | –
– | – | – | – | – | – | CN(C)C(=O)COC(=O)Cc1ccc(OC(=O)c2ccc(NC(=N)N)cc2)cc1 [Camostat] | have antiplamin activity | strongly inhibit | –
– | – | – | – | – | – | N=C(N)Nc1ccc(C(=O)Oc2ccc3cc(C(=N)N)ccc3c2)cc1 [Nafamstat] | have antiplamin activity | strongly inhibit | –
– | – | – | – | – | – | aprotinin | have antiplamin activity | strongly inhibit | –
< 3.00 | 5.49 | 6.27 | 4.80 | 7.49 | 6.11 | Cc1ccc(S(=O)(=O)NCCCC[C@@H](NS(=O)(=O)c2ccc(C)cc2)C(=O)N[C@@H](Cc2ccccc2)C(=O)N[C@H](C=O)CCCCN)cc1 [Compound 5, N-α-N-ε-Di(p-tosyl)-D-lysyl-L-phenylalanyl-L-lysinal hydrochloride] (Tos-[dK](Tos)-Phe-Lys-aldehyde) | – | – | –
– | – | – | – | – | – | CC(=O)N[C@@H](CC(C)C)C(=O)N[C@@H](CC(C)C)C(=O)N[C@H](C=O)CCCNC(=N)N [Compound A4, AcLeuLeuArgH.1/2H2 SO4.H2 O (leupeptin), reference compound] | – | – | pIC50 ([2]; Table 3): 3.23; pIC50 ([3]; Table 3): 6.11; pIC50 ([4]; Table 3): 3.89; pIC50 ([5]; Table 3): 4.85; pIC50 ([6]; Table 3): 4.70; pIC50 ([7]; Table 3): 5.26

Compound | pIC50 ([2]; Table 4) | pIC50 ([3]; Table 4) | pIC50 ([4]; Table 4) | pIC50 ([5]; Table 4) | pIC50 ([6]; Table 4) | pIC50 ([7]; Table 4) | antiplasmin activity [1] | inhibition of proteases other than plasmin, for example, thrombin and trypsin [10] | further results
Cc1ccc(S(=O)(=O)NCCCC[C@@H](NC(=O)OCC(C)C)C(=O)N[C@@H](Cc2ccccc2)C(=O)N[C@H](C=O)CCCCN)cc1 [Compound 1, N-α-Isobutoxycarbonyl-N-ε-(p-tosyl)-D-lysyl-L-phenylalanyl-L-lysinal hydrochloride] | < 3.00 | 5.55 | 6.74 | 5.09 | 7.47 | 6.64 | – | – | –
Cc1ccc(S(=O)(=O)NCCCC[C@@H](NC(=O)OCC(C)C)C(=O)N[C@@H](Cc2ccccc2)C(=O)N[C@@H](CCCCN)C(=O)CCl)cc1 [Compound 13, N-α-Isobutoxycarbonyl-N-ε-(p-tosyl)-D-lysyl-L-phenylalanyl-L-lysine chloromethyl ketone hydrochloride] | 5.60 | 6.17 | 6.96 | 5.54 | 7.51 | 6.36 | – | – | –
